# According to PMC7588595, “Small-molecule active pharmaceutical ingredients of approved cancer therapeutics inhibit human aspartate/asparagine-β-hydroxylase” (Bioorganic & Medicinal Chemistry, 2020):
# Where a name gives a salt, the structure may show the parent alone. Read-outs that look alike come from different tables or passages of the source.
# Molecular target: T1, human AspH (His6-AspH315–758) (Homo sapiens, UniProt Q12797)
# T1 construct: N-Terminally His6-tagged human AspH315–758 (His6-AspH315–758) was produced in Escherichia coli BL21 (DE3) cells; made in house; host or cells: Escherichia coli BL21 (DE3), pET-28a(+) vector
# T1 sequence (Q12797 315-758): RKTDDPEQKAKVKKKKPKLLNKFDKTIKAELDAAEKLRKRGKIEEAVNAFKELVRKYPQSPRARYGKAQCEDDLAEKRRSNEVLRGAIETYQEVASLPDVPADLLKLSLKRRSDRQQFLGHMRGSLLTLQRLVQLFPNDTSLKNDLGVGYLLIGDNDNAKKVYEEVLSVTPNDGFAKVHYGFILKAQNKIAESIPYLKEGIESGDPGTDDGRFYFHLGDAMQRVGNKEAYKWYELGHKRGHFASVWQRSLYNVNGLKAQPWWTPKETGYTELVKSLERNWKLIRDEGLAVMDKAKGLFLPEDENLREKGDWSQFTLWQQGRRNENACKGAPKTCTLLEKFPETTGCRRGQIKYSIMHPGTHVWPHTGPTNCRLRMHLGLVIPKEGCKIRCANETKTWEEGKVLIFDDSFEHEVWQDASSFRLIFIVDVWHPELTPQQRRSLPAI
# Assay: SPE-MS AspH inhibition assay (hFX-CP101-119 substrate hydroxylation)
# Type: biochemical
# [1] = AspH-inhibitor screening, 384-well Plate 1, substrate conversion
# [2] = AspH-inhibitor screening, Plate 1-duplicate, substrate conversion
# [3] = AspH-inhibitor screening, 384-well Plate 1
# [4] = AspH-inhibitor screening, Plate 1-duplicate
# [5] = 50 nM His6-AspH315–758, 1 μM hFX-CP101–119, 100 μM LAA, 3 μM 2OG, 2 μM FAS, 50 mM HEPES pH 7.5, 20 °C, read-out: IC50
# [6] = 20 μM fixed inhibitor, 50 nM His6-AspH315–758, 1 μM hFX-CP101–119, 100 μM LAA, 3 μM 2OG, 2 μM FAS, 50 mM HEPES pH 7.5, 20 °C, relative to DMSO and 2,4-PDCA controls
# [7] = read-out: IC50 at 10 μM substrate, 10 μM hFX-CP101–119 and 10 μM 2OG instead of 1 μM hFX-CP101–119 and 3 μM 2OG
# [8] = read-out: IC50 at 20 μM Fe(II), 20 μM Fe(II) instead of 2 μM Fe(II)
# [9] = read-out: IC50 at 200 μM 2OG, 200 μM 2OG instead of 3 μM 2OG
Compound,Plate 1 (% conversion) [1],Plate 1-duplicate (% conversion) [2],Plate 1 (% inhibition) [3],Plate 1-duplicate (% inhibition) [4],further results
CO[C@@H]1[C@H](N(C)C(=O)c2ccccc2)C[C@H]2O[C@]1(C)n1c3ccccc3c3c4c(c5c6ccccc6n2c5c31)C(=O)NC4 [PKC412_Midostaurin],7.13%,6.90%,–,–,–
Clc1ccc(Nc2nnc(Cc3ccncc3)c3ccccc23)cc1 [Vatalanib],46.26%,48.73%,7.55%,6.67%,–
COc1cc2c(cc1O)CC[C@@H]1[C@@H]2CC[C@]2(C)[C@@H](O)CC[C@@H]12 [2-methoxyestradiol (Panzem)],47.15%,50.24%,5.63%,3.64%,–
COc1ncc(-c2ccc3nccc(-c4ccnnc4)c3c2)cc1NS(=O)(=O)c1ccc(F)cc1F [GSK2126458],45.98%,43.54%,8.17%,17.15%,–
CC(C)C(=O)Nc1ccc([N+](=O)[O-])c(C(F)(F)F)c1 [Flutamide],49.60%,46.97%,0.33%,10.24%,–
CC(O)(CS(=O)(=O)c1ccc(F)cc1)C(=O)Nc1ccc(C#N)c(C(F)(F)F)c1 (stereo not drawn) [Bicalutamide],50.76%,52.04%,-2.20%,0.00746%,–
CCS(=O)(=O)c1cccc(-c2cc(C(=O)NC3CCN(C)CC3)c(C)c3[nH]c4ncc(C)cc4c23)c1 [TAK-901],57.02%,63.48%,-15.73%,-23.07%,–
Cc1ccc([N+](=O)[O-])cc1S(=O)(=O)N(C)/N=C/c1cnc2ccc(Br)cn12.Cl [PIK-75 HCl],55.10%,52.07%,-11.59%,-0.06%,–
C=CCn1c(=O)c2cnc(Nc3ccc(N4CCN(C)CC4)cc3)nc2n1-c1cccc(C(C)(C)O)n1 [MK1775],47.09%,51.12%,5.75%,1.85%,–
Nc1ccn([C@@H]2O[C@H](CO)[C@@H](O)[C@@H]2O)c(=O)n1 [Cytarabine hydrochloride],48.76%,50.30%,2.14%,3.50%,–
CCCCCOC(=O)Nc1nc(=O)n([C@@H]2O[C@H](C)[C@@H](O)[C@H]2O)cc1F [Capecitabine],47.95%,46.76%,3.89%,10.65%,–
CC[C@H](CC#N)OC(=O)N[C@@H](C)c1cccc(NC(=O)Nc2ccc(-c3cnco3)c(OC)c2)c1 [AVN944],53.00%,56.13%,-7.04%,-8.24%,–
CC(C)C[C@@H](C(=O)N[C@H](C(=O)OC1CCCC1)c1ccccc1)[C@H](O)C(=O)NO [CHR 2797_Tosedostat],54.26%,60.47%,-9.77%,-16.99%,–
C=CC(=O)Nc1cc(Nc2nccc(-c3cn(C)c4ccccc34)n2)c(OC)cc1N(C)CCN(C)C [Osimertinib],34.05%,35.31%,34.01%,33.73%,–
CNC(=O)c1cccc(-c2ccc3c(N4CCOC[C@@H]4C)nc(N4CCOC[C@@H]4C)nc3n2)c1 [AZD2014],46.18%,49.59%,7.73%,4.94%,–
Cl.NC(=O)Nc1cc(-c2cccc(F)c2)sc1C(=O)N[C@H]1CCCNC1 [AZD 7762 hydrochloride],43.15%,49.73%,14.30%,4.66%,–

Compound,Plate 1 (% conversion) [1],Plate 1-duplicate (% conversion) [2],Plate 1 (% inhibition) [3],Plate 1-duplicate (% inhibition) [4],further results
CS(=O)(=O)CCNCc1ccc(-c2ccc3ncnc(Nc4ccc(OCc5cccc(F)c5)c(Cl)c4)c3c2)o1 [Lapatinib],64.49%,61.75%,-31.93%,-19.57%,–
COc1cccc2c1C(=O)c1c(O)c3c(c(O)c1C2=O)C[C@@](O)(C(=O)CO)C[C@@H]3O[C@H]1C[C@H](N)[C@@H](O)[C@H](C)O1 [Epirubicin hydrochloride],53.51%,65.95%,-8.14%,-28.05%,–
"O=C(CCCCCCC(=O)Nc1ccc([C@H]2O[C@@H](CSc3nc(-c4ccccc4)c(-c4ccccc4)o3)C[C@@H](c3ccc(CO)cc3)O2)cc1)NO [Tubacin, reference compound]",6.91%,8.45%,92.77%,87.89%,IC50 [5]: 4.12 ± 0.5 µM; AspH inhibition at 20 μM [6]: 90.3 ± 3.5%; inhibition at 20 µM [6]: > 90%; IC50 [7]: 3.57 ± 0.1 µM; IC50 [8]: 4.91 ± 1.63 µM; IC50 [9]: 5.69 ± 0.7 µM
COc1cc2nccc(Oc3ccc(NC(=O)Nc4cc(C)on4)c(Cl)c3)c2cc1OC [AV-951 (Tivozanib)],44.66%,51.69%,11.01%,0.70%,–
COc1cc2c(N3CCN(C(=O)Nc4ccc(OC(C)C)cc4)CC3)ncnc2cc1OCCCN1CCCCC1 [Tandutinib],55.16%,56.28%,-11.71%,-8.54%,–
Cn1nnc2c(C(N)=O)ncn2c1=O [Temozolomide],47.38%,47.85%,5.12%,8.46%,–
COc1cc(Nc2ncc(F)c(Nc3ccc4c(n3)NC(=O)C(C)(C)O4)n2)cc(OC)c1OC [R406_Tamatinib],44.65%,51.68%,11.05%,0.72%,–
VX-11e,–,–,–,–,Plate 1 (% conversion): 33.84%; Plate 1 (% inhibition): 34.46%; Plate 1-duplicate (% conversion): 36.75%; Plate 1-duplicate (% inhibition): 30.84%
CN[C@@H]1C[C@H]2O[C@@](C)([C@@H]1OC)n1c3ccccc3c3c4c(c5c6ccccc6n2c5c31)C(=O)N[C@H]4O [UCN-01],48.30%,52.44%,3.15%,-0.80%,–
"CO[C@@H]1[C@H](N(C)C(=O)c2ccccc2)C[C@H]2O[C@]1(C)n1c3ccccc3c3c4c(c5c6ccccc6n2c5c31)C(=O)NC4 [Midostaurin, reference compound]",–,–,–,–,IC50 [5]: 9.43 ± 3.07 µM; IC50 [7]: 6.02 ± 1.32 µM; IC50 [8]: 7.28 ± 0.9 µM; IC50 [9]: 12.4 ± 2.9 µM
COc1nc(N)nc2c1ncn2[C@@H]1O[C@H](CO)[C@@H](O)[C@@H]1O [Nelarabine],50.31%,51.33%,-1.21%,1.44%,–
CC(C)Cn1cnc2c(N)nc3ccccc3c21 [Imiquimod],47.98%,49.43%,3.84%,5.27%,–
N#Cc1ccc(COC[C@H]2O[C@@H](n3c(NCc4ccc(Cl)c(Cl)c4)nc4c(N)ncnc43)[C@H](O)[C@@H]2O)cc1 [VER 155008],45.05%,48.47%,10.19%,7.21%,–
C[C@]12CC[C@H](O)CC1=CC[C@@H]1[C@@H]2CC[C@]2(C)C(c3cccnc3)=CC[C@@H]12 [Abiraterone],48.92%,51.35%,1.80%,1.40%,–
CC(C)n1cnc2c(NCCc3ccc(O)cc3)nc(-c3csc4ccccc34)nc21.Cl [SR1 HCl],34.49%,30.39%,33.05%,43.66%,–
NCCCNCCSP(=O)(O)O [Amifostine],48.06%,49.19%,3.65%,5.75%,–
